Measured values reported in PMC6988309, “Preclinical efficacy for a novel tyrosine kinase inhibitor, ArQule 531 against acute myeloid leukemia” (Journal of Hematology & Oncology, 2020).
Values joined by “and” are separate entries in the source; they are usually repeats but may differ in a detail not shown here. Equal entries are not always repeated.

Key:
[1] = system: MOLM-13 disseminated AML xenograft; assay: MOLM-13 disseminated xenograft, ARQ + Ven combination study (NCG mice); assay type: in vivo; conditions: 50 mg/kg ARQ 531 and/or 75 mg/kg venetoclax Q.D.P.O from 4 days post-engraftment until ERC; vehicle 25 days
Procedure: All experiments were conducted after approval of The Ohio State University Institutional Animal Care and Use Committee. Mice were randomized and enrolled for daily oral gavage (Q.D.P.O) treatment of vehicle or 50 mg/kg ARQ 531. Mice were treated until reaching early removal criteria (ERC) defined as 20% weight loss, lethargy, hind limb paralysis, moribund, anorexia, dehydration, hunched posture, severe diarrhea, breathing difficulties, or any abnormal neurological symptoms. […]
Fig. 7 BCL2 inhibition improves ARQ 531 in vivo activity. a Kaplan–Meier survival curve in the MOLM-13 xenograft after mice were treated with vehicle (N = 9) or 50 mg/kg ARQ 531 Q.D.P.O (N = 9) or 75 mg/kg venetoclax Q.D.P.O (N = 10) or 50 mg/kg ARQ 531 and 75 mg/kg venetoclax combination Q.D.P.O (N = 10) at 4 days post engraftment until ERC. b Noninvasive serial whole body bioluminescence imaging of ventral view to monitor leukemia progression and regression post treatment. Mice were injected with 150 mg/kg Firefly D-Luciferin for evaluation of tumor burden as determined by whole body bioluminescence imaging using IVIS imager

MOLM-13 = assay: MTS proliferation assay 72 h, MOLM-13; conditions: MOLM-13, 1 µM, 72 hours MTS (ibrutinib 1 hour washout)
Procedure: A total of 5000–30,000 cells from the lines above were treated in a 96-well plate for 72 h. CellTiter 96 Aqueous MTS reagent (Promega, Madison, WI) was added to cells followed by a 3-h incubation at 37 °C, 5% CO2. The absorbance was measured at 490 nm using DTX 880 plate reader and the half maximal inhibitory concentration (IC50) was calculated using GraphPad Prism 7 (GraphPad Software, La Jolla, CA) and SAS/STAT software (SAS v9.4 for Windows, SAS Institute, Inc., Cary, NC). For the MOLM-13 resistant and the Ba/F3-FLT3-ITD/TKD cell lines, cells were treated for 72 h and cell viability was evaluated using MTT assay (Roche Diagnostics. Mannheim. Germany) according to the manufacturer’s instructions.

BTK phosphorylation = assay: Immunoblot of phospho-BTK; assay type: cell-based, human
Procedure: (§1) Cells were washed in ice-cold PBS then lysed in 1X Cell Lysis Buffer (CST) supplemented with proteinase and phosphatase inhibitors cocktail (Roche). Pierce BCA Protein Assay was used to quantify the protein lysates (Thermo Fisher Scientific, Waltham, MA). For Immunoblotting, 15–25 μg of protein lysate was prepared in 2X or 4X Laemmeli’s sample buffer (Bio-Rad Laboratories, Hercules, CA) and heated for 5 min at 100 °C. Samples were separated on 8% sodium dodecyl sulfate polyacrylamide gel and transferred onto nitrocellulose membrane (Bio-Rad Laboratories, Hercules, CA). The membranes were blocked for 1 h in Blocker BLOTTO Blocking Buffer (Thermo Fisher Scientific, Waltham, MA) or 5% non-fat milk followed by overnight incubation at 4 °C with primary antibody followed by HRP-conjugated secondary antibodies and visualized with chemiluminescent Pierce ECL Substrate (Thermo Fisher Scientific, Waltham, MA) on X-ray films.
Immunoblot analysis for MOLM-13, MV4-11, and OCI-AML3 AML cell lines (representative of 2-3 independent blots). […] Twenty to 25 μg of total protein lysate was loaded per lane.

[2] = system: Ba/F3 FLT3-ITD pMIT SYK-TEL
Procedure: (§3) CellTiter 96 Aqueous MTS reagent (Promega, Madison, WI) was added to cells followed by a 3-h incubation at 37 °C, 5% CO2. The absorbance was measured at 490 nm using DTX 880 plate reader and the half maximal inhibitory concentration (IC50) was calculated using GraphPad Prism 7 (GraphPad Software, La Jolla, CA) and SAS/STAT software (SAS v9.4 for Windows, SAS Institute, Inc., Cary, NC).

[3] = system: primary AML patient blasts; assay: MTS proliferation assay, primary AML blasts co-cultured with HS5-GFP stroma cells, 96 h; assay type: cell-based, human; conditions: HS5-GFP co-culture
Description: For in vitro cytotoxicity experiments (Fig. 1b–d), repeated measures models were used to account for correlations among observations from the same experiment. The percentage of live cells was compared at each concentration with DMSO. […] Mixed effects models were used in experiments described in Additional file 1: Table S4 and Fig. 2c to account for correlations within a single patient. Outcome data were first log-transformed to stabilize variances and reduce skewness. For survival experiments (Figs. 5 and 6a), Kaplan-Meier curves were produced and group differences for Fig. 5 and assessed by the log-rank test and for Fig. 6a, p values have been adjusted for multiple comparisons using Holm’s procedure. p values from experiments with multiple endpoints were adjusted for multiple comparisons using either Holm’s procedure or Dunnett’s test (all comparisons against vehicle/DMSO).
(§2) MTS proliferation assay using a human stroma co-culture assay. […] FLT3 wild-type (WT) samples (red) and FLT3-ITD (black). Colony-Forming Unit-Granulocyte and Macrophage (CFU-GM) assay. […] Number of colonies were counted after 14 days (c)

[4] = system: phosphorylated SYK (tyrosine 525/526); assay: Immunoblot of phospho-SYK Tyr525/526; assay type: cell-based, human; conditions: MOLM-13, MV4-11, and OCI-AML3, 10-min treatment
Procedure: as §1, with “Cell lines were serum starved overnight followed by a 10-min treatment. Cells” for “Cells”
Fig. 3 ARQ 531 modulates AML pro-survival kinases. Immunoblot analysis for MOLM-13, MV4-11, and OCI-AML3 AML cell lines (representative of 2-3 independent blots). […] Twenty to 25 μg of total protein lysate was loaded per lane. GAPDH, HSP90, or β-Actin were used as loading controls. a, b Modulation of phosphorylated SFK and downstream targets in FLT3-ITD cell lines MOLM-13 and MV-11, respectively. c, d Modulation of phosphorylated SYK and BTK in all three cell lines

[5] = system: primary AML patient blasts; assay: Colony-Forming Unit-Granulocyte and Macrophage (CFU-GM) assay; assay type: cell-based, human; conditions: 0.1 µM, colonies counted after 14 days
Procedure: Primary AML patient samples were treated and plated at 5000–10,000 cells in 1.1 ml methylcellulose supplemented with recombinant human stem cell factor, interleukin 3, granulocyte colony-stimulating factor, and granulocyte-macrophage colony-stimulating factor (MethoCult™, […] Technologies, Vancouver, Canada) per dish in duplicates. Colonies were counted after 14 days when using primary patient samples.
as §2

[6] = system: MOLM-13, MV4-11, and OCI-AML3 cell lines; assay: Annexin/PI apoptosis assay 72 h; assay type: cell-based, human; conditions: increasing concentrations of ARQ 531 or 50 nM gilteritinib
Procedure: Cells were treated for 72 h then stained for 20 min in 1X Annexin Binding buffer (BD Biosciences, Franklin Lakes, NJ) containing Annexin V-FITC and Propidium Iodine (Leinco Technologies, Fenton, MO). Live and apoptotic cells were measured using FC 500 flow cytometer and analyzed on Kaluza software (Beckman Coulter, Pasadena, CA).

Procedure for Ba/F3 FLT3-ITD Parental: as §3

CC1(C)CCC(CN2CCN(c3ccc(C(=O)NS(=O)(=O)c4ccc(NCC5CCOCC5)c([N+](=O)[O-])c4)c(Oc4cnc5[nH]ccc5c4)c3)CC2)=C(c2ccc(Cl)cc2)C1 [venetoclax, reference compound]
survival [1]: 24 days

C=CC(=O)N1CCC[C@@H](n2nc(-c3ccc(Oc4ccccc4)cc3)c3c(N)ncnc32)C1 [ibrutinib, reference compound]
in vitro anti-proliferative activity (MOLM-13): only ARQ 531 demonstrated in vitro anti-proliferative activity | effect on BTK phosphorylation (BTK phosphorylation): potently inhibit BTK phosphorylation

CCc1nc(C(N)=O)c(Nc2ccc(N3CCC(N4CCN(C)CC4)CC3)c(OC)c2)nc1NC1CCOCC1 [Gilteritinib, reference compound]
IC50 [2]: 651 nM and 415 nM and 456 nM | Estimated Ratio of proliferation versus vehicle (DMSO) ([3]; 0.005 µM): 1.02 | Estimated Ratio of proliferation versus vehicle (DMSO) ([3]; 0.01 µM): 1.05 | Estimated Ratio of proliferation versus vehicle (DMSO) ([3]; 0.05 µM): 1.06 | Estimated Ratio of proliferation versus vehicle (DMSO) ([3]; 0.1 µM): 1.02 | Estimated Ratio of proliferation versus vehicle (DMSO) ([3]; 0.5 µM): 0.99 | Estimated Ratio of proliferation versus vehicle (DMSO) ([3]; 1 µM): 0.87 | Estimated Ratio of proliferation versus vehicle (DMSO) ([3]; 5 µM): 0.78 | Estimated Ratio of proliferation versus vehicle (DMSO) ([3]; 10 µM): 0.56 | Estimated Ratio of proliferation versus vehicle (DMSO) ([3]; 50 µM): 0.54 | effect on phosphorylated SYK (tyrosine 525/526) [4]: down-modulated SYK phosphorylation only in the FLT3-ITD cell lines | Estimated ratio of colony formation vs. DMSO [5]: 0.67 | apoptosis / cytotoxicity (Annexin/PI) [6]: cytotoxic in the FLT3-ITD cell lines only

c1cn2cc(-c3ccc4cn[nH]c4c3)nc(Nc3ccc(N4CCOCC4)cc3)c2n1 [entospletinib, Entospletinib, reference compound]
in vitro anti-proliferative activity (MOLM-13): potently inhibited proliferation

CO[C@@H]1[C@H](N(C)C(=O)c2ccccc2)C[C@H]2O[C@]1(C)n1c3ccccc3c3c4c(c5c6ccccc6n2c5c31)C(=O)NC4 [Midostaurin, reference compound]
IC50 (Ba/F3 FLT3-ITD Parental): 95.4 nM and 63.3 nM | effect on phosphorylated SYK (tyrosine 525/526) [4]: down-modulated SYK phosphorylation only in the FLT3-ITD cell lines

CC(C)(C)c1cc(NC(=O)Nc2ccc(-c3cn4c(n3)sc3cc(OCCN5CCOCC5)ccc34)cc2)no1 [quizartinib, Quizartinib]
effect on phosphorylated SYK (tyrosine 525/526) [4]: down-modulated SYK phosphorylation only in the FLT3-ITD cell lines
